Converted amounts (≈) assume the structure as drawn.
Tests used:
Candida albicans = assay: Antifungal activity against Candida albicans MTCC 227 after 24 to 48 hrs by broth microdilution method; type: functional
Aspergillus fumigatus = assay: Antifungal activity against Aspergillus fumigatus MTCC 3008 after 24 to 48 hrs by broth microdilution method; type: functional
Streptococcus pneumoniae = assay: Antibacterial activity against Streptococcus pneumoniae MTCC 1936 after 24 to 48 hrs by broth microdilution method; type: functional
Clostridium tetani = assay: Antibacterial activity against Clostridium tetani MTCC 449 after 24 to 48 hrs by broth microdilution method; type: functional
Bacillus subtilis = assay: Antibacterial activity against Bacillus subtilis MTCC 441 after 24 to 48 hrs by broth microdilution method; type: functional
Salmonella typhi = assay: Antibacterial activity against Salmonella typhi MTCC 98 after 24 to 48 hrs by broth microdilution method; type: functional, Salmonella enterica subsp. enterica serovar Typhi; details: Salmonella enterica
Vibrio cholerae = assay: Antibacterial activity against Vibrio cholerae MTCC 3906 after 24 to 48 hrs by broth microdilution method; type: functional
Escherichia coli = assay: Antibacterial activity against Escherichia coli MTCC 443 after 24 to 48 hrs by broth microdilution method; type: functional
[1] = test system: Mycobacterium tuberculosis; assay: Antituberculosis activity against Mycobacterium tuberculosis H37Rv at 250 ug/ml incubated for 24 hrs measured after 2 to 4 weeks by Lowensteine-Jensen method; type: functional
[2] = test system: Mycobacterium tuberculosis; assay: Antituberculosis activity against Mycobacterium tuberculosis H37Rv after 2 to 4 weeks by Lowensteine-Jensen method; type: functional
Plasmodium falciparum = assay: Antimalarial activity against Plasmodium falciparum after 48 hrs; type: functional, organism-based
[3] = test system: Schizosaccharomyces pombe; assay: Cytotoxicity against Schizosaccharomyces pombe at 2.5 to 12.5 ug/ml after 17 hrs by trypan blue exclusion method; type: organism-based; details: in vivo

Molecule	MIC (Candida albicans) [µM]	MIC (Aspergillus fumigatus) [µM]	MIC (Streptococcus pneumoniae) [µM]	MIC (Clostridium tetani) [µM]	MIC (Bacillus subtilis) [µM]	MIC (Salmonella typhi) [µM]	MIC (Vibrio cholerae) [µM]	MIC (Escherichia coli) [µM]	inhibition at 250 µg/mL [1] [%]	MIC [2] [µM]	IC50 (Plasmodium falciparum) [nM]	Activity [3]
COC1=CC(=O)C[C@@H](C)[C@]12Oc1c(Cl)c(OC)cc(OC)c1C2=O [GRISEOFULVIN]	1150 (≈ 405 µg/mL)	283 (≈ 99.8 µg/mL)	–	–	–	–	–	–	–	–	–	–
Fc1ccc(N2N=C(c3ccc(Br)cc3)CC2c2cc3ccccc3nc2N2CCOCC2)cc1 (stereo not drawn)	470 (≈ 250 µg/mL)	940 (≈ 500 µg/mL)	188 (≈ 99.9 µg/mL)	188 (≈ 99.9 µg/mL)	940 (≈ 500 µg/mL)	376 (≈ 200 µg/mL)	470 (≈ 250 µg/mL)	117 (≈ 62.2 µg/mL)	95	47 (≈ 25 µg/mL)	15	Non-toxic
O=CN1N=C(c2ccc(F)cc2)CC1c1cc2ccccc2nc1N1CCOCC1 (stereo not drawn)	2470 (≈ 1000 µg/mL)	> 2470	247 (≈ 99.9 µg/mL)	1240 (≈ 500 µg/mL)	154 (≈ 62.3 µg/mL)	1240 (≈ 500 µg/mL)	618 (≈ 250 µg/mL)	494 (≈ 200 µg/mL)	93	247 (≈ 99.9 µg/mL)	1040	–
O=CN1N=C(c2ccc(Cl)cc2)CC1c1cc2ccccc2nc1N1CCOCC1 (stereo not drawn)	2380 (≈ 1000 µg/mL)	> 2380	148 (≈ 62.3 µg/mL)	475 (≈ 200 µg/mL)	1190 (≈ 500 µg/mL)	1190 (≈ 500 µg/mL)	237 (≈ 99.8 µg/mL)	237 (≈ 99.8 µg/mL)	94	59 (≈ 24.8 µg/mL)	28	Toxic
NC(=S)N1N=C(c2ccc(Br)cc2)CC1c1cc2ccccc2nc1N1CCOCC1 (stereo not drawn)	> 2010	1010 (≈ 500 µg/mL)	402 (≈ 200 µg/mL)	201 (≈ 99.8 µg/mL)	402 (≈ 200 µg/mL)	402 (≈ 200 µg/mL)	201 (≈ 99.8 µg/mL)	201 (≈ 99.8 µg/mL)	90	201 (≈ 99.8 µg/mL)	44	Non-toxic
NYSTATIN	107	107	–	–	–	–	–	–	–	–	–	–
CO[C@H]1/C=C/O[C@@]2(C)Oc3c(C)c(O)c4c(O)c(c(/C=N/N5CCN(C)CC5)c(O)c4c3C2=O)NC(=O)/C(C)=C\C=C\[C@H](C)[C@H](O)[C@@H](C)[C@@H](O)[C@@H](C)[C@H](OC(C)=O)[C@@H]1C [RIFAMPIN]	–	–	–	–	–	–	–	–	98	48 (≈ 39.5 µg/mL)	–	–
NC(=S)N1N=C(c2ccc(F)cc2)CC1c1cc2ccccc2nc1N1CCOCC1 (stereo not drawn)	229 (≈ 99.7 µg/mL)	1150 (≈ 500 µg/mL)	229 (≈ 99.7 µg/mL)	1150 (≈ 500 µg/mL)	1150 (≈ 500 µg/mL)	143 (≈ 62.3 µg/mL)	574 (≈ 250 µg/mL)	574 (≈ 250 µg/mL)	54	–	1840	–
COc1ccc(C2=NN(C=O)C(c3cc4ccccc4nc3N3CCOCC3)C2)cc1 (stereo not drawn)	1200 (≈ 500 µg/mL)	2400 (≈ 1000 µg/mL)	240 (≈ 100 µg/mL)	1200 (≈ 500 µg/mL)	600 (≈ 250 µg/mL)	240 (≈ 100 µg/mL)	480 (≈ 200 µg/mL)	480 (≈ 200 µg/mL)	36	–	1870	–
NNC(=O)c1ccncc1 [ISONIAZID]	–	–	–	–	–	–	–	–	–	1 (≈ 0.137 µg/mL)	–	–
O=C(N[C@H](CO)[C@H](O)c1ccc([N+](=O)[O-])cc1)C(Cl)Cl [CHLORAMPHENICOL]	–	–	154 (≈ 49.8 µg/mL)	154 (≈ 49.8 µg/mL)	154 (≈ 49.8 µg/mL)	154 (≈ 49.8 µg/mL)	154 (≈ 49.8 µg/mL)	154 (≈ 49.8 µg/mL)	–	–	–	–
COc1ccc(C2=NN(C(N)=S)C(c3cc4ccccc4nc3N3CCOCC3)C2)cc1 (stereo not drawn)	1120 (≈ 500 µg/mL)	223 (≈ 99.8 µg/mL)	223 (≈ 99.8 µg/mL)	446 (≈ 200 µg/mL)	446 (≈ 200 µg/mL)	223 (≈ 99.8 µg/mL)	558 (≈ 250 µg/mL)	558 (≈ 250 µg/mL)	63	–	3240	–
CCn1cc(C(=O)O)c(=O)c2cc(F)c(N3CCNCC3)cc21 [NORFLOXACIN]	–	–	31 (≈ 9.9 µg/mL)	313 (≈ 100 µg/mL)	310 (≈ 99 µg/mL)	31 (≈ 9.9 µg/mL)	31 (≈ 9.9 µg/mL)	31 (≈ 9.9 µg/mL)	–	–	–	–
O=CN1N=C(c2ccc(Br)cc2)CC1c1cc2ccccc2nc1N1CCOCC1 (stereo not drawn)	537 (≈ 250 µg/mL)	1070 (≈ 500 µg/mL)	537 (≈ 250 µg/mL)	429 (≈ 200 µg/mL)	214 (≈ 99.6 µg/mL)	134 (≈ 62.4 µg/mL)	214 (≈ 99.6 µg/mL)	214 (≈ 99.6 µg/mL)	32	–	40	Non-toxic
O=C(O)c1cn(C2CC2)c2cc(N3CCNCC3)c(F)cc2c1=O [CIPROFLOXACIN]	–	–	150 (≈ 49.7 µg/mL)	–	150 (≈ 49.7 µg/mL)	75 (≈ 24.9 µg/mL)	75 (≈ 24.9 µg/mL)	75 (≈ 24.9 µg/mL)	–	–	–	–
CC(=O)N1N=C(c2ccc(F)cc2)CC1c1cc2ccccc2nc1N1CCOCC1 (stereo not drawn)	597 (≈ 250 µg/mL)	1190 (≈ 500 µg/mL)	238 (≈ 99.6 µg/mL)	238 (≈ 99.6 µg/mL)	597 (≈ 250 µg/mL)	238 (≈ 99.6 µg/mL)	597 (≈ 250 µg/mL)	597 (≈ 250 µg/mL)	32	–	1670	–
CC(=O)N1N=C(c2ccc(Cl)cc2)CC1c1cc2ccccc2nc1N1CCOCC1 (stereo not drawn)	1150 (≈ 500 µg/mL)	1150 (≈ 500 µg/mL)	1150 (≈ 500 µg/mL)	149 (≈ 64.8 µg/mL)	229 (≈ 99.6 µg/mL)	574 (≈ 250 µg/mL)	229 (≈ 99.6 µg/mL)	229 (≈ 99.6 µg/mL)	96	143 (≈ 62.2 µg/mL)	2870	–
COc1ccc(C2=NN(c3ccc(F)cc3)C(c3cc4ccccc4nc3N3CCOCC3)C2)cc1 (stereo not drawn)	518 (≈ 250 µg/mL)	207 (≈ 99.9 µg/mL)	259 (≈ 125 µg/mL)	1040 (≈ 500 µg/mL)	518 (≈ 250 µg/mL)	207 (≈ 99.9 µg/mL)	518 (≈ 250 µg/mL)	414 (≈ 200 µg/mL)	33	–	51	Non-toxic
Fc1ccc(N2N=C(c3ccc(Cl)cc3)CC2c2cc3ccccc3nc2N2CCOCC2)cc1 (stereo not drawn)	2050 (≈ 1000 µg/mL)	205 (≈ 99.8 µg/mL)	1030 (≈ 500 µg/mL)	1030 (≈ 500 µg/mL)	410 (≈ 200 µg/mL)	410 (≈ 200 µg/mL)	513 (≈ 250 µg/mL)	205 (≈ 99.8 µg/mL)	24	–	1790	–
Fc1ccc(C2=NN(c3ccc(F)cc3)C(c3cc4ccccc4nc3N3CCOCC3)C2)cc1 (stereo not drawn)	212 (≈ 99.8 µg/mL)	2120 (≈ 1000 µg/mL)	265 (≈ 125 µg/mL)	132 (≈ 62.1 µg/mL)	212 (≈ 99.8 µg/mL)	212 (≈ 99.8 µg/mL)	132 (≈ 62.1 µg/mL)	265 (≈ 125 µg/mL)	48	–	3420	–
COc1ccc(C2=NN(C(C)=O)C(c3cc4ccccc4nc3N3CCOCC3)C2)cc1 (stereo not drawn)	2320 (≈ 1000 µg/mL)	1160 (≈ 500 µg/mL)	145 (≈ 62.4 µg/mL)	1160 (≈ 500 µg/mL)	232 (≈ 99.9 µg/mL)	1160 (≈ 500 µg/mL)	1160 (≈ 500 µg/mL)	232 (≈ 99.9 µg/mL)	45	–	34	Toxic
C=C[C@H]1CN2CC[C@H]1C[C@H]2[C@H](O)c1ccnc2ccc(OC)cc12 [QUININE]	–	–	–	–	–	–	–	–	–	–	826	–
CC1(C)S[C@@H]2[C@H](NC(=O)[C@H](N)c3ccccc3)C(=O)N2[C@H]1C(=O)O [AMPICILLIN]	–	–	286 (≈ 99.9 µg/mL)	715 (≈ 250 µg/mL)	715 (≈ 250 µg/mL)	286 (≈ 99.9 µg/mL)	286 (≈ 99.9 µg/mL)	286 (≈ 99.9 µg/mL)	–	–	–	–
NC(=S)N1N=C(c2ccc(Cl)cc2)CC1c1cc2ccccc2nc1N1CCOCC1 (stereo not drawn)	2210 (≈ 1000 µg/mL)	221 (≈ 99.9 µg/mL)	553 (≈ 250 µg/mL)	221 (≈ 99.9 µg/mL)	221 (≈ 99.9 µg/mL)	553 (≈ 250 µg/mL)	221 (≈ 99.9 µg/mL)	442 (≈ 200 µg/mL)	45	–	4650	–
CC(=O)N1N=C(c2ccc(Br)cc2)CC1c1cc2ccccc2nc1N1CCOCC1 (stereo not drawn)	2090 (≈ 1000 µg/mL)	208 (≈ 99.7 µg/mL)	417 (≈ 200 µg/mL)	208 (≈ 99.7 µg/mL)	1040 (≈ 500 µg/mL)	1040 (≈ 500 µg/mL)	1040 (≈ 500 µg/mL)	521 (≈ 250 µg/mL)	29	–	18	Toxic

— ChEMBL document CHEMBL3785013, “Novel morpholinoquinoline nucleus clubbed with pyrazoline scaffolds: Synthesis, antibacterial, antitubercular and antimalarial activities” (Eur J Med Chem, 2016)
